Data: patent publication US5834493A, “Indole derivatives as 5-HT1A and/or 5-HT2 ligands” (priority 1993, dated 1998)

Columns and labels:
5-HT1A receptors = target: T1, 5-HT1A receptors (Rattus norvegicus, UniProt P19327); experiment: 5-HT1A receptor binding ([3H]-8-OH-DPAT displacement, rat hippocampus homogenate); design: species or system rat (male Sprague Dawley); settings: [3H]-8-OH-DPAT 1.0-1.5 nM, 30° C., 15 min, pH 7.4, read-out: Affinity for 5-HT1A receptors, Ki
T1 construct: The Hippocampi of these animals were homogeneized in 10 volumes of ice cold TRIS buffer; from tissue; host or cells: rat hippocampus (male Sprague Dawley), homogenate
T1 sequence (P19327 1-422): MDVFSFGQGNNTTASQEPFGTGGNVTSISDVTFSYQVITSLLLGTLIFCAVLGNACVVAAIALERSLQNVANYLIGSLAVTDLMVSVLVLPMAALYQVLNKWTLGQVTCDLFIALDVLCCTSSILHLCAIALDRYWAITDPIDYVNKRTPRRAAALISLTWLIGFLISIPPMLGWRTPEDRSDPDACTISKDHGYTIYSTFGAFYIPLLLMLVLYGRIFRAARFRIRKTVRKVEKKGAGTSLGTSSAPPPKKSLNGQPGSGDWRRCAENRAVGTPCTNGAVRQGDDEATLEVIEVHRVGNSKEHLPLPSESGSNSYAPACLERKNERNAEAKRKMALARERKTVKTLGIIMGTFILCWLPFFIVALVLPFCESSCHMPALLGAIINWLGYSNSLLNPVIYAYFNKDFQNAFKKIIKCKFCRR
Procedure: (§1) Receptor binding studies on 5-HT1A and 5-HT2 receptors were carried out to determine the affinity of the test compounds.
Rats (male Sprague Dawley, 200-250 g) were used. The Hippocampi of these animals were homogeneized in 10 volumes of ice cold TRIS buffer (pH 7.4). The homogenate was diluted 1:400 (w:v) in the same buffer to have a final protein concentration of about 200 μg/mL, filtered and incubated at 37° C. for 10 min, before use.
Displacement experiments were performed by incubating the homogenate (980 μL) in the presence of [^3 H]-8OH-DPAT (1.0-1.5 nM) (10 μL) and of different concentrations of the test compounds dissolved in the test buffer (10 μL), at 30° C. for 15 min (final volume: 1 mL).
Non specific binding was determined in the presence of 100 μM 5-HT (10 μL). The separation of [3H]-8-OH-DPAT, free from that bound to the receptor, was carried out by the filtration technique (GF/B filters, Whatman). The radioactivity present was counted by liquid scintillation spectrometry.
(§2) The affinity values (Ki) for the compounds were obtained by a non linear least squares regression analysis on the basis of a one binding site model. The values were corrected on the basis of the radioligand occupancy on the receptors according to the equation: Ki=IC50 /(1+[C]/KD),where [C] and KD represent the concentration and the dissociation constant, respectively, of the radioligand used ([^3 H]-8-OH-DPAT).

5-HT2 receptors = target: T2, 5-HT2 receptors (Rattus norvegicus, UniProt P14842); experiment: 5-HT2 receptor binding ([3H]-Ketanserine displacement, rat cerebral cortex); design: species or system rat (male Sprague Dawley); settings: [3H]-Ketanserine 0.5-1.0 nM, 37° C., 10 min, pH 7.4, read-out: Affinity for 5-HT2 receptors, Ki
T2 construct: Cerebral cortices were homogenized in 10 volumes of ice cold 0.32M sucrose; from tissue; host or cells: rat cerebral cortex (male Sprague Dawley), membrane preparation
Procedure: as §1
Rats (male Sprague Dawley, 200-250 g) were used. Cerebral cortices were homogenized in 10 volumes of ice cold 0.32M sucrose. After the centrifugation of the homogenate (1,000×g for 10 min) the supernatant was then recentrifuged at 48,000×g for 15 min. The resulting pellet was resuspended in 10 volumes of 50 mM TRIS buffer (pH 7.4), incubated at 37° C. for 10 min and recentrifuged at 48,000×g for 15 min. The residue was then resuspended in 10 volumes of 50 mM TRIS buffer (pH 7.4).
The tissue was diluted 1:100 (w:v) in 50 mM TRIS buffer (pH 7.4) to have a final protein concentration of about 200 μg/mL.
Displacement experiments were performed by incubating the homogenate (980 μL) in the presence of [^3 H]-Ketanserine (0.5-1.0 nM) (10 μL) and of different concentrations of the test compounds dissolved in the assay buffer (10 μL), at 37° C. for 10 min (final volume: 1 mL).
Non specific binding was determined in the presence of 100 μM Methysergide (10 μL). The separation of [^3 ]-Ketanserine free from that bound to the receptor was carried by the filtration technique (GF/B filters, Whatman). The radioactivity present was counted by liquid scintillation spectrometry.
as §2, with “by” for “by a”, “model. These” for “model. The”, “Ki=IC50 /(1+[C]/KD), where” for “Ki=IC50 /(1+[C]/KD),where”, “([^3 H]-Ketanserine).” for “([^3 H]-8-OH-DPAT).”

T2 sequence (P14842 whole entry): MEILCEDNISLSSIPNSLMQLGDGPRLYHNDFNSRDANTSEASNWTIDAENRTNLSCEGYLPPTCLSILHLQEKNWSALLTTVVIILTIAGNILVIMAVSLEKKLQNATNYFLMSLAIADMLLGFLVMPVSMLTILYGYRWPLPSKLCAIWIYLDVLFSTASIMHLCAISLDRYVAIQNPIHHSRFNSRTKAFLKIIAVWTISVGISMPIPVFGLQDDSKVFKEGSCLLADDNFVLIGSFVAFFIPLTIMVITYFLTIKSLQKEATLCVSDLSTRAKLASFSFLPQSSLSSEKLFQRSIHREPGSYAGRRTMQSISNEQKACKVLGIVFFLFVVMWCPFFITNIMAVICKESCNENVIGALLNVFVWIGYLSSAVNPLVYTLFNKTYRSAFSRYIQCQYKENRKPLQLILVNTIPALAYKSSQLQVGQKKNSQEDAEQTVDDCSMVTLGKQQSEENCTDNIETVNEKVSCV

Question: For `COc1ccc2[nH]cc(CC3=CCCN(C)C3)c2c1` [Compound 1, 5-methoxy-3-(N-methyl-1,2,5,6-tetrahydro-pyridin-3-yl-methyl)-1H-indole], which Ki (5-HT1A receptors) is on record?
Answer: Its Ki is 35 nM.

Question: What does the source list for `COc1ccc2[nH]cc(CC3=CCCN(CCOc4ccc(F)cc4)C3)c2c1` [Compound 2, 5-methoxy-3-[N-(4'-fluoro-phenoxy-ethyl)-1,2,5,6-tetrahydro-pyridin-3-yl-methyl]-1H-indole]?
Answer: Ki (5-HT1A receptors): 10 nM; Ki (5-HT2 receptors): 50 nM

Question: What does the source list for `COc1ccc2[nH]cc(CC3=CCCN(CCCC(=O)c4ccc(F)cc4)C3)c2c1` [Compound 9, 5-methoxy-3-[N-(4-(4-fluoro-phenyl)-4-oxo-butyl)-1,2,5,6-tetrahydro-pyridin-3-ylmethyl]-1H-indole]?
Answer: Ki (5-HT1A receptors): 30 nM; Ki (5-HT2 receptors): 15 nM

Question: Which results are given for `COc1ccc2[nH]cc(CC3=CCCN(CCC(=O)c4ccc(F)cc4)C3)c2c1` [Compound 11, 5-methoxy-3-[N-(3-(4-fluoro-phenyl)-3-oxo-propyl)-1,2,5,6-tetrahydro-pyridin-3-ylmethyl]-1H-indole]?
Answer: Ki (5-HT1A receptors): 30 nM; Ki (5-HT2 receptors): 20 nM

Question: What does the source list for `COc1ccc2[nH]cc(CC3=CCCN(CCc4ccc(N)cc4)C3)c2c1` [Compound 13, 5-methoxy-3-[N-(2-(4-amino-phenyl)-ethyl)-1,2,5,6-tetrahydro-pyridin-3-ylmethyl]-1H-indole]?
Answer: Ki (5-HT1A receptors): 100 nM; Ki (5-HT2 receptors): 50 nM

Question: Which results are given for `COc1ccc2[nH]cc(CC3=CCCN(CCCCc4ccc(F)cc4)C3)c2c1` [Compound 14, 5-methoxy-3-[N-(4-(4-fluoro-phenyl)-butyl)-1,2,5,6-tetrahydro-pyridin-3-ylmethyl]-1H-indole]?
Answer: Ki (5-HT1A receptors): 80 nM; Ki (5-HT2 receptors): 100 nM

Question: How did the Ki (5-HT1A receptors) turn out when `COc1ccc2[nH]cc(CC3=CCCN(CCCc4ccc(F)cc4)C3)c2c1` [Compound 15, 5-methoxy-3-[N-(3-(4-fluoro-phenyl)-propyl)-1,2,5,6-tetrahydro-pyridin-3-ylmethyl]-1H-indole] was run?
Answer: The Ki was 10 nM.

Question: And the Ki (5-HT2 receptors)?
Answer: Its Ki is 10 nM.

Question: How did the Ki (5-HT1A receptors) turn out when `COc1ccc2[nH]cc(CC3=CCCN(CCNC(=O)c4ccc(F)cc4)C3)c2c1` [Compound 16] was run?
Answer: Its Ki is 1 nM.

Question: With `COc1ccc2[nH]cc(CC3=CCCN(CCNC(=O)c4cccs4)C3)c2c1` [Compound 17, 5-methoxy-3-[N-(2-(2-thiophene-carboxamide)-ethyl)-1,2,5,6-tetrahydro-pyridin-3-ylmethyl]-1H-indole] as the molecule, how does the Ki (5-HT1A receptors) read?
Answer: The Ki was 1 nM.

Question: For `COc1ccc2[nH]cc(CC3=CCCN(CCCC(=O)c4cccs4)C3)c2c1` [Compound 32, 5-methoxy-3-[N-(4-(2-thienyl)-4-oxo-butyl)-1,2,5,6-tetrahydro-pyridin-3-ylmethyl]-1H-indole], which Ki (5-HT1A receptors) is on record?
Answer: The Ki was 30 nM.

Question: And the Ki (5-HT2 receptors)?
Answer: The Ki was 10 nM.
